Like-named read-outs stand apart in the source and are kept apart here. Values belong to the molecule of their own block, whether it stands above or below them.
What was measured:
KLF4 and c-Myc = KLF4 and c-Myc expression in HaF (PCR); assay type: cell-based, human; settings: 1 mM VPA, up to 72 h
Experimental: Fibroblast cells were treated with 1 mM VPA for up to 3 days. At the end of incubation, the cells were collected and subjected to PCR analysis. Cells with no exposure to VPA (3 days) serve as control. Graphs present fold change to control after normalization with GAPDH.

HDAC6 = target: T1, HDAC6 (Homo sapiens, UniProt Q9UBN7); settings: Targeted HDAC/Sirtuin: 6; cited from earlier work
T1 sequence (Q9UBN7 1-1215): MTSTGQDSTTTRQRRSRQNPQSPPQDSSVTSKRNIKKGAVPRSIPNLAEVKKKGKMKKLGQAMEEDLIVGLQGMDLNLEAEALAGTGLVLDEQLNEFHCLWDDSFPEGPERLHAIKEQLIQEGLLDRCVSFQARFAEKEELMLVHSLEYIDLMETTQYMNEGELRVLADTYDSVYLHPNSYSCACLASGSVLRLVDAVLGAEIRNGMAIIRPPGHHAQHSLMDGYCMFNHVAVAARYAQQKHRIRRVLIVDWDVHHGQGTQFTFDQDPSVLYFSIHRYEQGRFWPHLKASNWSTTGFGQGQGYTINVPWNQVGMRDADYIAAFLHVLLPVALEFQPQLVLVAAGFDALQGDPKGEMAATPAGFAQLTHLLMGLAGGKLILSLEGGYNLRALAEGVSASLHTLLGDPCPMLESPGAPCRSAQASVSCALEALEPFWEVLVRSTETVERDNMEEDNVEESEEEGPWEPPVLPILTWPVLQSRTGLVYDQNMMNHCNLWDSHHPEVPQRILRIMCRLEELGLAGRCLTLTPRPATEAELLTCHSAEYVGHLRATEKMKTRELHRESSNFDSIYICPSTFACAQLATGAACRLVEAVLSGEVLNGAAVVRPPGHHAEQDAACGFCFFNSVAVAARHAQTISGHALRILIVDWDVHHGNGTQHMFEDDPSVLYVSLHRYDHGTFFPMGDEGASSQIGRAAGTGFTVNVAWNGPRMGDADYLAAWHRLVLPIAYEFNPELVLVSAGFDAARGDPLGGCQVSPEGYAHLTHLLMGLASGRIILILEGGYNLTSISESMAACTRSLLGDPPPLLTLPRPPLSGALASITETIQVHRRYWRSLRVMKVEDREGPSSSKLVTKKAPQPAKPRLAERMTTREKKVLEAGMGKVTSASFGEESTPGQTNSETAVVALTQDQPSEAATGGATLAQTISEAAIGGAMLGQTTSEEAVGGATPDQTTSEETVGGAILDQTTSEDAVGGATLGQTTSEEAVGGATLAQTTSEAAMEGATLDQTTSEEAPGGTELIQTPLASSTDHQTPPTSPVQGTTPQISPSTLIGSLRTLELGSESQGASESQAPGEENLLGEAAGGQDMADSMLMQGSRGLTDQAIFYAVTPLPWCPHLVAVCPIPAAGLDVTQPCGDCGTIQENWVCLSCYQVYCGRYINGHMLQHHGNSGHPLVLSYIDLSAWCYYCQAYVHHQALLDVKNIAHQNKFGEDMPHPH

HDAC1 = HDAC1 (Homo sapiens, UniProt Q13547); settings: Targeted HDAC/Sirtuin: 1; cited from earlier work
HDAC1, sequence (Q13547 whole entry, species assumed): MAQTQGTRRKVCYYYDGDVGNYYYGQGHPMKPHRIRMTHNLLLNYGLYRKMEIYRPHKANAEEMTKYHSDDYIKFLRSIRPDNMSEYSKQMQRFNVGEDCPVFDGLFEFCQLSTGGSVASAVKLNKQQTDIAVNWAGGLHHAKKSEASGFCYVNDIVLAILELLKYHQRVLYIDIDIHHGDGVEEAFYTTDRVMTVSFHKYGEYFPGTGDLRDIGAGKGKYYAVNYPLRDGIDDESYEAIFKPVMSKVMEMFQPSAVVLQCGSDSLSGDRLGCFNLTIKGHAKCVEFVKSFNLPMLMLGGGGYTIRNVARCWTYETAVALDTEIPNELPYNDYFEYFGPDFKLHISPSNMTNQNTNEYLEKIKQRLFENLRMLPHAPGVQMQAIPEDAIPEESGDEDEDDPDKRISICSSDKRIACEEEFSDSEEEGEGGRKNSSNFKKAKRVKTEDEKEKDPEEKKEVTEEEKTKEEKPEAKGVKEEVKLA

U251MG cells [1] = experiment: Viable cell number after p53 transfection with transfection enhancers; assay type: cell-based; settings: for cell death / cell number with p53 transfection: pEGFP-N1-p53, 10 μM Tubastatin A, 5 μM SAHA
acetylated α-tubulin = experiment: Tubulin acetylation immunostaining; assay type: cell-based; settings: for tubulin acetylation: differentiated Neuro2A, 2 h, Tubastatin A 10 μM, TSA 50 nM, Paclitaxel 25 nM, SAHA 5 μM, Entinostat 10 μM, Tacedinaline 50 μM
Experimental: Then, cells were fixed with 4% formaldehyde and co-stained for acetylated α-tubulin and β-tubulin. Confocal images of the individual and merged channels are shown. Bar represents 20 μm. Further, a table is presented, showing the reagents and their respective targets, as well as the concentration at which the experiment was done.
FIG. 35 depicts micrographs showing the transient effect of Tubastatin A on tubulin acetylation. Neuro2a cells were treated with Tubastatin A (10 μM) for 12 hours. Then, chemicals were removed by replacement with complete media and cells were further incubated for 48 h. At various time points, cells were fixed with 4% formaldehyde and stained for acetylated α-tubulin (Green) and nucleus (Hoechst stain, Blue). Representative images were shown. Bar represents 20 μm.
Control and 10 μM differentiated Neuro2a Cells were fixed with 4% formaldehyde in 1×PBS for 20 min at room temperature and subsequently permeabilized in 0.5% Triton-X100 in 1×PBS. Then, the samples fixed cells were blocked with normal goat serum (1:10; Dako, Glostrup, Denmark) in 0.1% Triton X-100/1×PBS for 30 min at 37° C. The cells were then incubated with primary antibodies against acetylated α-Tubulin (Sigma Aldrich T7451, 1:200 dilution) or TuJ (R&D Systems MAB1195, 1:50 dilution) in 0.1% TritonX-100/1% BSA/1×PBS at 37° C. for 2 h and washed three times in 1×PBS. […] The cells were washed three times in 1×PBS and mounted. Image acquisition was performed using the Zeiss LSM710 with Axio Observer.Z1 confocal microscope system (Oberkochen, Germany). All images were taken with identical laser and optical settings.

MICA and NKG2D = MICA and NKG2D expression in PC3 cells (PCR); assay type: cell-based, human; settings: 5 μM SAHA, up to 48 hours
Experimental: At the end of the incubation, the cells were collected and subjected to PCR analysis. […] The histogram here represented fold change to control after normalization with GAPDH.

Neuro2A cells = assay type: cell-based; settings: for uptake of polyplex: inhibitor 45 min prior transfection, LPEI/pDNA N/P=20, 4 h; for cell death at the concentrations used: Dynasore 30 μg/ml, Filipin III 5 μg/ml, Rottlerin […]
Experimental: A. Native and differentiated (10 μM RA) Neuro2a was treated with 2.5 μg/ml rottlerin, 5 μg/ml Filipin III or 30 μg/ml Dynasore for 45 min prior transfection. DMSO/0.5% FBS was used as control for treatment. After transfection with polyplex (N/P=20), cells were incubated at 4° C. or 37° C. for 4 h. Extracellular pDNA was removed by pAA/DNAse and cells were trypsinized. Then, samples were treated with pAA/urea lysis buffer and the absolute copy number of pDNA was quantified by qPCR. In similar experiments, native Neuro2A cells were incubated at 37° C. for 24 h post transfection. B. Representative fluorescent images (bottom rows), acquired 48 h post transfection. C. Percentage of cells expressing EGFP was counted. Significant differences in transfection efficiencies were calculated using the two tailed student's t-test. The data shown were the mean±s.e.m., n=4. *, p<0.05; **, p<0.005.
For studies using inhibitors, cells were incubated with Dynasore (30 μg/ml), Filipin III (5 μg/ml) or Rottlerin (2.5 μg/ml) in DMEM (0.5% FBS) for 45 min prior transfection. Cells were further incubated in DMEM (0.5% FBS) containing corresponding inhibitors post transfection.
To quantify DNA internalized by the cells, the supernatant was removed and the cells were washed once with 1×PBS and incubated in DMEM containing pAA/DNAse for 2 h at 4° C. Next, the cells were trypsinized and treated with pAA/urea lysis buffer. Efficiency of DNA release by pAA/urea lysis buffer and pAA/DNase was evaluated (Supplementary FIGS. 15 & 18). […] Primers specific for EGFP, forward primer (5′-3′, […]; SEQ ID NO:1) and reverse primer (5′-3′, […]; SEQ ID NO:2) were used. PCR quantification of the pDNA was performed as previously described (Yoong, L.F., G. Wan, and H.P. Too. Mol Cell Neurosci, 2009. 41(4): p. 464-73). The absolute amount of pDNA was determined using plasmid standards by interpolation.

[2] = test system: differentiated Neuro2A cells; experiment: Transfection efficiency (EGFP positive cells) of differentiated Neuro2A; assay type: cell-based; settings: LPEI/pDNA N/P=20; chloroquine 25 or 100 μM, PLUS 10 or 20 μL, INF7 10 or 20 μg; 48 h
HDAC3 = HDAC3 (Homo sapiens, UniProt O15379); settings: Targeted HDAC/Sirtuin: 3; cited from earlier work
HDAC3, sequence (O15379 whole entry): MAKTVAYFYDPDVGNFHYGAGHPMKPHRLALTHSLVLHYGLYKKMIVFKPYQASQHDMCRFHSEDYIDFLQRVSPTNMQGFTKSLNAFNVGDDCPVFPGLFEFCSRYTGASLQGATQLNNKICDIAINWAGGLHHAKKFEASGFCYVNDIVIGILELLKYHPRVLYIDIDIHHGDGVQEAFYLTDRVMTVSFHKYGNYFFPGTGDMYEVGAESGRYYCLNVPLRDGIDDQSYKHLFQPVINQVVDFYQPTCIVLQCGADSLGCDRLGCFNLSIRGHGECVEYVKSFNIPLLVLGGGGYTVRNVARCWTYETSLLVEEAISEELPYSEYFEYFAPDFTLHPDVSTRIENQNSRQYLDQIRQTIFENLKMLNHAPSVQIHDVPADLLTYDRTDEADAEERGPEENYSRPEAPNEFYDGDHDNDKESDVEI
HDAC3, sequence (Q9Y618 395-489 partner limits assumed): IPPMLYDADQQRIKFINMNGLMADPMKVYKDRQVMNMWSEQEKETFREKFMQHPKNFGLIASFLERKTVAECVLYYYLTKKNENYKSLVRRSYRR

human fetal MSC cells [3] = experiment: GFP transfection of human fetal MSC; assay type: cell-based; settings: PEIMAX/PMAXGFP N/P=10; 100 nM Trichostatin A
Experimental: Next, cells were harvested and GFP expressions were analysed by FACS analysis. Graph represents % of GFP+ cells. Error bar represents the standard error mean (S.E.M.) of n=3. Statistical significance of transfection efficiencies between cells exposed to polyplexes only and other conditions were obtained using two tailed student's t-test; *, p<0.01. Representative images of the transfected cells of each condition are presented.
Human fetal MSC cells were transfected with PEIMAX/PMAXGFP complex at N/P=10. […] Three days after transfection, media was replaced with fresh culture media. Bright field and fluorescent images were taken at Day 2, 7, 14 and 21 days post transfection. Representative imaged are presented.

PC3 cells = experiment: GFP transfection of PC3 cells (FACS); assay type: cell-based, human; settings: PEIMAX/PMAXGFP N/P=20
Experimental: Next, cells were harvested and GFP expression was analysed by FACS analysis. […] Representative images of the FACS analysis and transfected cells of each condition are presented. Error bar represents the standard error mean (S.E.M.) of n=3.

U251MG cells [4] = experiment: GFP transfection of U251MG cells (FACS); assay type: cell-based; settings: PEIMAX/PMAXGFP N/P=10; 10 μM Tubastatin A, 5 μM SAHA
Experimental: Furthermore, representative images of the FACS analysis and transfected cells for each conditions are presented. Error bar represents the standard error mean (S.E.M.) of n=3. […] Next, cells were harvested and GFP expressions were analysed by FACS analysis.

human fetal MSC cells [5] = experiment: BMP2 expression in human MSC (qPCR); assay type: cell-based; settings: PEIMAX/PMAXGFP-BMP2 N/P=10; 3 day post transfection; 5 μM Tubastatin A, 150 nM TSA
[6] = differentiated (10 μM RA) Neuro2A

Molecule: CCCC(CCC)C(=O)O [Valproic Acid]
expressions of cMyc and KLF4 (KLF4 and c-Myc): Gradual increment | IC50 (HDAC6): 11800 µM | IC50 (HDAC1): 442 µM

expression of MICA and NKG2D (MICA and NKG2D): induced up-regulation of MICA and NKG2D
Molecule: O=C(CCCCCCC(=O)Nc1ccccc1)NO [SAHA, vorinostat]
cell number on increasing duration of incubation with SAHA (U251MG cells [1]; p53, DOPE/CHEMS, 5 μM SAHA for 48, 72 and 96 h): did not further reduce the cell number | cell death / cell number with p53 transfection (U251MG cells [1]): resulted in more cell death | tubulin acetylation (acetylated α-tubulin): markedly enhanced tubulin acetylation

Molecule: Nc1ccccc1NC(=O)c1ccc(CNC(=O)OCc2cccnc2)cc1 [Entinostat]
tubulin acetylation (acetylated α-tubulin): not

Molecule: O=C(N/N=C/c1ccc(O)c(O)c1)c1cc2ccccc2cc1O [Dynasore]
uptake of polyplex (Neuro2A cells; [6]): significantly inhibited the uptake of polyplex | uptake of polyplex (Neuro2A cells; native Neuro2A): significantly inhibited the uptake of polyplex

Molecule: CCN(CC)CCCC(C)Nc1ccnc2cc(Cl)ccc12 (stereo not shown) [chloroquine]
enhancement of transfection, reagent added post-transfection [2]: did not show cumulative enhancement of transfection

Molecule: CCCCC[C@@H](O)[C@H]1C(=O)O[C@H](C)[C@@H](O)/C=C/C=C/C=C/C=C/C=C(\C)[C@@H](O)C[C@H](O)C[C@H](O)C[C@H](O)C[C@H](O)C[C@H](O)C[C@@H]1O [Filipin III]
cell death at the concentrations used (Neuro2A cells): no evidence of cell death | uptake of polyplex (Neuro2A cells; [6]): did not affect polyplex uptake | uptake of polyplex (Neuro2A cells; native Neuro2A): did not affect polyplex uptake

Molecule: O=C(/C=C/c1cccc(S(=O)(=O)Nc2ccccc2)c1)NO [Belinostat]
IC50 (HDAC6): 0.41 µM

Molecule: CC(=O)c1c(O)c(C)c(O)c(Cc2c(O)c3c(c(C(=O)/C=C/c4ccccc4)c2O)OC(C)(C)C=C3)c1O [Rottlerin]
cell death at the concentrations used (Neuro2A cells): no evidence of cell death | uptake of polyplex (Neuro2A cells; [6]): not in differentiated cells | uptake of polyplex (Neuro2A cells; native Neuro2A): reduced the uptake of polyplex significantly

Molecule: MC-1293
IC50 (HDAC3): 288 µM

Molecule: C/C=C1\NC(=O)[C@H]2CSSCC/C=C/[C@H](CC(=O)N[C@H](C(C)C)C(=O)N2)OC(=O)[C@H](C(C)C)NC1=O [Romidepsin]
IC50 (HDAC1): 0.08 µM

Molecule: CC(/C=C/C(=O)NO)=C\[C@@H](C)C(=O)c1ccc(N(C)C)cc1 [Trichostatin A]
enhancement of transfection (human fetal MSC cells [3]): significant enhancement of transfection | tubulin acetylation (acetylated α-tubulin): markedly enhanced tubulin acetylation | enhancement of transfection (PC3 cells): significant enhancement of transfection

Molecule: CC(=O)O[C@H]1C(=O)[C@@]2(C)[C@H]([C@H](OC(=O)c3ccccc3)[C@]3(O)C[C@H](OC(=O)[C@H](O)[C@@H](NC(=O)c4ccccc4)c4ccccc4)C(C)=C1C3(C)C)[C@]1(OC(C)=O)CO[C@@H]1C[C@@H]2O [paclitaxel]
tubulin acetylation (acetylated α-tubulin): markedly enhanced tubulin acetylation

Molecule: CN1CCc2c(c3ccccc3n2Cc2ccc(C(=O)NO)cc2)C1 [Tubastatin A]
cell death / cell number with p53 transfection (U251MG cells [1]): did not result in greater reduction of cell number | duration of effect on tubulin acetylation (acetylated α-tubulin; Neuro2a, Tubastatin A 10 μM for 12 hours then washout): < 24 h | tubulin acetylation (acetylated α-tubulin): markedly enhanced tubulin acetylation | enhancement of transfection (PC3 cells): significant enhancement of transfection | transfection efficiency (U251MG cells [4]): significant enhancement in transfection efficiency | BMP2 expression, fold over the negative control (human fetal MSC cells [5]): ~20,000 fold

Molecule: CC(=O)Nc1ccc(C(=O)Nc2ccccc2N)cc1 [Tacedinaline]
tubulin acetylation (acetylated α-tubulin): not

Reference: patent US10100331B2, “Reagent for gene-drug therapeutics” (Agency for Science, Technology and Research, priority 2012, dated 2018)
